The results in this text go back to US9051325B2, “Bicyclic [5,6] imidazo pyrimodone compounds for use in the treatment of diseases or conditions mediated by Lp-PLA2” (GlaxoSmithKline Intellectual Property Development Limited, priority 2013, dated 2015).

Assay [1] deals with proinflammatory (M1) and anti-inflammatory (M2) markers in macrophages. The assay is described as follows: Ex vivo analysis of M1 and M2 markers in macrophages of EAE rats by realtime PCR. Also noted: species or system rat. As to conditions: splenic and CNS infiltrating macrophages of EAE rats. As for the experimental part: Ex vivo analysis of proinflammatory (M1) and anti-inflammatory (M2) markers in control and compound treated EAE rats. Splenic macrophages were harvested at day 13 post MBP-immunization and assayed for expression of a variety of markers by realtime PCR. CNS infiltrating cells were harvested and macrophages were analyzed for expression of M1 and M2 markers by realtime PCR.

The test system of a further assay is rat EAE model. The assay is described as follows: Rat experimental autoimmune encephalomyelitis (EAE) model, preventive treatment. It is filed as in vivo. As for the experimental part: A further study was carried out to study the impact of Lp-PLA2 inhibitors on modulating M1/M2 imbalance. In this study, rats were induced to develop experimental autoimmune encephalomyelitis (EAE) by immunization with myelin basic protein (MBP) antigen and treated with a known Lp-PLA2 inhibitor: 5-((9-Methoxy-4-oxo-6,7-dihydro-4H-pyrimido[6,1-a]isoquinolin-2-yl)oxy)-2-(3-(trifluoromethyl)phenoxy)benzonitrile (See PCT application no. PCT/CN2011/001597). In this preventive treatment model, the compound was administered at day 0 (day of immunization) and continued to administer until day 22. The study lasted for 25 days. Rats were subsequently monitored for symptoms of EAE. Rats were immunized with MBP to develop EAE and symptoms were monitored daily. Plasma Lp-PLA2 activity, OxLDL, and LysoPC concentration were determined at different time points through the course of EAE.

The target in assay [2] is T1, recombinant human Lp-PLA2 (Homo sapiens, UniProt Q13093).
T1 sequence (Q13093 22-441): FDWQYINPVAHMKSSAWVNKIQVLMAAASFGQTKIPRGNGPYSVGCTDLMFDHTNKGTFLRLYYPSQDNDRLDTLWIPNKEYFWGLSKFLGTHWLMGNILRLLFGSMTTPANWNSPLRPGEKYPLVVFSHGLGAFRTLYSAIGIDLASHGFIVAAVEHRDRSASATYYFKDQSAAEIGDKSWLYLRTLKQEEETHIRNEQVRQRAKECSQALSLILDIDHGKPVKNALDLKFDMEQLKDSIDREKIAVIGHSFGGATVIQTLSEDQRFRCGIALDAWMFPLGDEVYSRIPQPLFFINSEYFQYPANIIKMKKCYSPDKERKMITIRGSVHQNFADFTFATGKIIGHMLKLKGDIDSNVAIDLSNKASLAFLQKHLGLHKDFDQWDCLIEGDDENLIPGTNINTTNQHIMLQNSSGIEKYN
In words: Recombinant human Lp-PLA2 assay (rhLp-PLA2, PED6 assay). It is filed as biochemical. In outline: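 Compounds were preincubated 30 min with 4 nM […] rhLp-PLA2 in 50 mM HEPES pH 7.4, 150 mM NaCl, 1 mM CHAPS, then PED6 substrate […] was added for 20 min at room temperature in the dark. Fluorescence was read at ex 480/em 540, and pIC50 was fitted from 1:3 serial dilutions.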

The next assay addresses T2, Lp-PLA2 in human plasma (Homo sapiens, UniProt Q13093).
T2 construct: from tissue; host or cells: pooled human plasma
T2 sequence (Q13093 22-441): T1 sequence (Q13093 22-441)
In words: Lp-PLA2 human plasma assay (Thio-PAF assay). It is filed as biochemical. The settings on record: pooled human plasma; lower bounds; read-out: pIC50 values in the thio-PAF assay (converted). The essentials: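 Pooled human plasma preincubated 30 min with compounds, then given 2-thio-PAF substrate with CPM and NEM in 50 mM HEPES pH 7.4, 150 mM NaCl, 1 mM CHAPS. Reaction quenched after 2 min with TFA and read by fluorescence (ex 380/em 485) after 40 min at room temperature; pIC50 from curve fit.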

Setting [3] is: lower bounds, read-out: pIC50 values in the PED6 assay (converted).
Setting [4] is: read-out: rhLp-PLA2 (PED6 assay) (pIC50) (converted).

Each structure is given as a SMILES string. Read-outs that look alike come from different tables or passages of the source. Where only a bound is given, the exact number is not on record here.

`COc1ccc2c(c1)CCn1c-2cc(Oc2ccc(Oc3cccc(C(F)(F)F)c3)c(C#N)c2)nc1=O` [5-((9-Methoxy-4-oxo-6,7-dihydro-4H-pyrimido[6,1-a]isoquinolin-2-yl)oxy)-2-(3-(trifluoromethyl)phenoxy)benzonitrile]: in assay [1], the M1 markers result is given as “decrease” and the M2 markers result was “increase”. In the assay on rat EAE model (rat EAE plasma), the “Lp-PLA2 activity in rat EAE plasma” value is recorded as “decreased” and the “LysoPC levels in rat EAE plasma” value is reported as “decreased”. The clinical disease result in the assay with rat EAE model (rat EAE, MBP immunization, administered day 0 to day 22) is “reduction in clinical disease”.
`CN1c2cc(OCc3ccc(F)cc3F)nc(=O)n2CC1(C)C` [Example E77, 7-((2,4-difluorobenzyl)oxy)-1,2,2-trimethyl-2,3-dihydroimidazo[1,2-c]pyrimidin-5(1H)-one]: the IC50 was at most 10 nM in assay [2] (setting [3]) and at most 100 nM at Lp-PLA2 in human plasma.
With `CC1(C)Cn2c(cc(OCc3ccc(Oc4ccc(C(F)(F)F)nc4)c(F)c3)nc2=O)N1` [Example E37, 7-((3-fluoro-4-((6-(trifluoromethyl)pyridin-3-yl)oxy)benzyl)oxy)-2,2-dimethyl-2,3-dihydroimidazo[1,2-c]pyrimidin-5(1H)-one], the IC50 was at most 1 nM in assay [2] (setting [3]) and at most 100 nM on Lp-PLA2 in human plasma.
`CN1c2cc(OCc3cc(F)cc(F)c3)nc(=O)n2CC1(C)C` [Example E114, 7-((3,5-difluorobenzyl)oxy)-1,2,2-trimethyl-2,3-dihydroimidazo[1,2-c]pyrimidin-5(1H)-one]: the values for the IC50 (in assay [2] (setting [3]); in assay [2] (setting [4]); at Lp-PLA2 in human plasma) were at most 1 nM, 0.794 nM and at most 100 nM, respectively.
In the case of `N#Cc1cc(COc2cc3n(c(=O)n2)CCN3C2CC2)ccc1Oc1cccc(C(F)(F)F)c1` [Example E18, 5-(((1-cyclopropyl-5-oxo-1,2,3,5-tetrahydroimidazo[1,2-c]pyrimidin-7-yl)oxy)methyl)-2-(3-(trifluoromethyl)phenoxy)benzonitrile], the figures for the IC50 (in assay [2] (setting [3]); at Lp-PLA2 in human plasma) were at most 1 nM and at most 100 nM, respectively.
Take `CC1Cn2c(cc(OCc3ccc(Oc4cc(F)cc(C(F)(F)F)c4)c(F)c3)nc2=O)N1C` (centres unmarked) [Example E119, 7-((3-fluoro-4-(3-fluoro-5-(trifluoromethyl)phenoxy)benzyl)oxy)-1,2-dimethyl-2,3-dihydroimidazo[1,2-c]pyrimidin-5(1H)-one]: the IC50 in assay [2] (setting [3]) is at most 1 nM; at Lp-PLA2 in human plasma, at most 100 nM.
For `C[C@H]1Cn2c(cc(OCc3ccc(Oc4ccc(C#N)c(C(F)(F)F)c4)c(F)c3)nc2=O)N1C` [Example E19, (S)-4-(4-(((1,2-dimethyl-5-oxo-1,2,3,5-tetrahydroimidazo[1,2-c]pyrimidin-7-yl)ox-y)methyl)-2-fluorophenoxy)-2-(trifluoromethyl)benzonitrile], the IC50 in assay [2] (setting [3]) was at most 1 nM; at Lp-PLA2 in human plasma, at most 100 nM.
With `CN1c2cc(OCc3ccc(F)c(C#N)c3)nc(=O)n2CC1(C)C` [Example E42, 2-fluoro-5-(((1,2,2-trimethyl-5-oxo-1,2,3,5-tetrahydroimidazo[1,2-c]pyrimidin-7-yl)oxy)methyl)benzonitrile], the values for the IC50 (in assay [2] (setting [3]); in assay [2] (setting [4]); at Lp-PLA2 in human plasma) were at most 1 nM, 0.316 nM and at most 100 nM, respectively.
On to `CCN1c2cc(OCc3cccc(F)c3F)nc(=O)n2CC1(C)C` [Example E66, 7-((2,3-difluorobenzyl)oxy)-1-ethyl-2,2-dimethyl-2,3-dihydroimidazo[1,2-c]pyrimidin-5(1H)-one], for which the IC50 is at most 10 nM in assay [2] (setting [3]) and at most 100 nM on Lp-PLA2 in human plasma.
